Patent US20150224164A1, “TREATMENT OF AUTISM SPECTRUM DISORDERS USING GLYCYL-L-2-METHYLPROLYL-L-GLUMATIC ACID” (Neuren Pharmaceuticals Limited, priority 2013, published 2015)
Where a SMILES comes first, the peptide text is derived from it.

Legend:
[1] = system: PCNA positive cells in the subventricular zone (SVZ); experiment: Neuroblast proliferation, PCNA positive cells in subventricular zone; assay type: in vivo, rat; details: 3 days
Description: To carry out these studies, tissues were fixed and embedded in paraffin and sections obtained using standard methods. Coronal sections (6 μm) containing the level of the hippocampus were cut and mounted on chrome-alum-coated slides for staining. The sections were deparaffinized in xylene, […] in a series of ethanol and incubated in 0.1 M phosphate buffered saline (PBS). Primary antibodies against glial fibrillary acidic protein (GFAP) and proliferating cell nuclear antigen (PCNA) were used to mark reactive glial cells and cells undergoing apoptosis and proliferation, respectively. For antigen unmasking (caspase-3 and PCNA staining), sections were heated in 10 mM sodium citrate buffer (pH 6.0) for 1 min at high power. All sections were pretreated with 1% H2O2 in 50% methanol for 30 min to quench the endogenous peroxidase activity. Then either 1.5% normal horse serum or 2.5% normal sheep serum in PBS was applied for 1 h at room temperature to block nonspecific background staining. […] The number of PCNA positive cells was counted in the subventricular zone and the GFAP positive cells was scored in the cerebral cortex. […] The number of PCNA positive cells was counted in the SVZ and the number of cells was then averaged as cells/mm depending on the length of ventricle wall used for counting (FIG. 19A). […]

[2] = system: GFAP-positive astrocytes; experiment: Astrocytosis, GFAP staining in aged brains; assay type: in vivo, rat; details: 18-month old rats; i.p.; 3 d; particularly 0.12 and 12 mg/kg; p<0.05
Description: To carry out these studies, tissues were fixed and embedded in paraffin and sections obtained using standard methods. Coronal sections (6 μm) containing the level of the hippocampus were cut and mounted on chrome-alum-coated slides for staining. The sections were deparaffinized in xylene, […] in a series of ethanol and incubated in 0.1 M phosphate buffered saline (PBS). Primary antibodies against glial fibrillary acidic protein (GFAP) and proliferating cell nuclear antigen (PCNA) were used to mark reactive glial cells and cells undergoing apoptosis and proliferation, respectively. For antigen unmasking (caspase-3 and PCNA staining), sections were heated in 10 mM sodium citrate buffer (pH 6.0) for 1 min at high power. All sections were pretreated with 1% H2O2 in 50% methanol for 30 min to quench the endogenous peroxidase activity. […] The number of PCNA positive cells was counted in the subventricular zone and the GFAP positive cells was scored in the cerebral cortex. We also evaluated effects of G-2-MePE on astrocytosis in the CA4 sub-region of the hippocampus in aged rats. […] GFAP-positive cells were counted using a computerised program (Discovery 1). G-2-MePE was administered intra-peritoneally and the numbers of GFAP-positive cells were assessed 3d after the injection. […]

C[C@@]1(C(=O)N[C@@H](CCC(=O)O)C(=O)O)CCCN1C(=O)CN [Example G-2-MePE, Glycyl-L-2-methylprolyl-L-glutamic acid] (HELM PEPTIDE1{G.[C[C@@]1(C(=O)[*:2])CCCN1[*:1]].E}$$$$V2.0)
number of PCNA positive cells in SVZ ([1]; 9 month old rats, 1.2 mg/kg i.p., p<0.005): significant increase | number of PCNA positive cells in SVZ ([1]; 18 month old rats, single i.p. 12 mg/kg, vs vehicle p<0.05): significant increase | number of reactive astrocytes (GFAP) in CA4 region of hippocampus [2]: reduced number of reactive astrocytes
